Laboratory results taken from patent US8685974B2 (Bayer CropScience AG, priority 2009, dated 2014).
Where two headings read alike, the source gives them in different places. Marks after values point to notes of the source that are not given here.

Tests used:
Alternaria solani = assay: Alternaria test (tomato) / protective; format: in vivo; settings: 500 ppm active compound, protective spray, evaluated 7 days after inoculation
Method: Alternaria Test (Tomato)/Protective
Solvent: 49 parts by weight of N,N-dimethylformamide
Emulsifier: 1 part by weight of alkylaryl polyglycol ether
To produce a suitable preparation of active compound, 1 part by weight of active compound is mixed with the stated amounts of solvent and emulsifier, and the concentrate is diluted with water to the desired concentration.
To test for protective activity, young tomato plants are sprayed with the preparation of active compound at the stated application rate. […] The plants then remain at 96% rel. atmospheric humidity and a temperature of 20° C.
Evaluation is carried out 7 days after the inoculation. 0% means an efficacy which corresponds to that of the control, whereas an efficacy of 100% means that no infection is observed.

Fusarium graminearum = format: cell-based; settings: 50 μM; for % Inhibition of DON/AcDON at 50 μM: 7 days at 28° C.

CC(C)Cn1cc(-c2ccnc(N)c2)c(-c2ccc(Cl)s2)n1 [Example 76]
efficacy (Alternaria solani): 89%
logP value of the minor isomer (in parenthesis in column Isomer ratio [d]) (minor isomer, main value of the example measured by method [a], pH 2.3): (1.93)
log p (pH 2.3): 2.04^[a]

CC(C)(C)Cn1cc(-c2ccncc2)c(-c2ccc(Br)s2)n1 [Example 347]
efficacy (Alternaria solani): 70%
% Inhibition of fungal growth at 50 μM (Fusarium graminearum): 79%
% Inhibition of DON/AcDON at 50 μM (Fusarium graminearum): 99%
log p (pH 2.7): 2.46^[b]

CCC(C)n1nc(-c2ccc(Cl)s2)c(-c2ccncc2)c1Br (centres unmarked) [Example 394]
efficacy (Alternaria solani): 94%
% Inhibition of fungal growth at 50 μM (Fusarium graminearum): 92%
% Inhibition of DON/AcDON at 50 μM (Fusarium graminearum): 100%
log p (pH 2.7): 3.69^[b]

C=CC(C)n1cc(-c2ccncc2)c(-c2cc3ccsc3s2)n1 (centres unmarked) [Example 368]
efficacy (Alternaria solani): 78%
% Inhibition of fungal growth at 50 μM (Fusarium graminearum): 100%
% Inhibition of DON/AcDON at 50 μM (Fusarium graminearum): 99%
log p (pH 2.7): 1.94^[b]

Cn1cc(-c2ccnc(N)c2)c(-c2ccc(Cl)s2)n1 [Example 305]
efficacy (Alternaria solani): 70%
log p (pH 2.7): 1.34^[b]

FC(F)Cn1cc(-c2ccncc2)c(-c2cc3ccsc3s2)n1 [Example 371]
efficacy (Alternaria solani): 78%
% Inhibition of fungal growth at 50 μM (Fusarium graminearum): 82%
% Inhibition of DON/AcDON at 50 μM (Fusarium graminearum): 99%
log p (pH 2.7): 1.63^[b]

CC(C)Cn1cc(-c2ccncc2)c(-c2cc3ccsc3s2)n1 [Example 369]
efficacy (Alternaria solani): 94%
% Inhibition of fungal growth at 50 μM (Fusarium graminearum): 100%
% Inhibition of DON/AcDON at 50 μM (Fusarium graminearum): 99%
log p (pH 2.7): 2.04^[b]

FCCn1cc(-c2ccncc2)c(-c2ccc(F)s2)n1 [Example 375]
efficacy (Alternaria solani): 100%
% Inhibition of fungal growth at 50 μM (Fusarium graminearum): 78%
% Inhibition of DON/AcDON at 50 μM (Fusarium graminearum): 99%
log p (pH 2.7): 1.16^[b]

CCC(C)n1cc(-c2ccncc2)c(-c2cc3ccsc3s2)n1 (centres unmarked) [Example 328]
efficacy (Alternaria solani): 94%
% Inhibition of fungal growth at 50 μM (Fusarium graminearum): 100%
% Inhibition of DON/AcDON at 50 μM (Fusarium graminearum): 98%
log p (pH 2.7): 2.07^[b]

Clc1ccc(Cn2cc(-c3ccncc3)c(-c3ccc(Cl)s3)n2)s1 [Example 323]
efficacy (Alternaria solani): 78%
% Inhibition of fungal growth at 50 μM (Fusarium graminearum): 6%
% Inhibition of DON/AcDON at 50 μM (Fusarium graminearum): 94%
log p (pH 2.7): 2.64^[b]

CC(C)Cn1cc(-c2ccnc(N(C(=O)C3CC3)C(=O)C3CC3)c2)c(-c2ccc(Cl)s2)n1 [Example 82]
efficacy (Alternaria solani): 78%
log p (pH 2.3): 4.75^[a]

c1cc(-c2cn(C3CCCC3)nc2-c2cc3ccsc3s2)ccn1 [Example 332]
efficacy (Alternaria solani): 94%
log p (pH 2.7): 2.25^[b]

CCn1cc(-c2ccncc2)c(-c2ccc(F)s2)n1 [Example 377]
efficacy (Alternaria solani): 100%
% Inhibition of fungal growth at 50 μM (Fusarium graminearum): 89%
% Inhibition of DON/AcDON at 50 μM (Fusarium graminearum): 99%
log p (pH 2.7): 1.28^[b]
logP value of the minor isomer (pH 2.7): (1.22)

C=CC(C)n1cc(-c2ccncc2)c(-c2ccc(F)s2)n1 (centres unmarked) [Example 376]
efficacy (Alternaria solani): 100%
% Inhibition of fungal growth at 50 μM (Fusarium graminearum): 84%
% Inhibition of DON/AcDON at 50 μM (Fusarium graminearum): 99%
log p (pH 2.7): 1.73^[b]

Fc1ccc(-c2nn(CC(F)(F)F)cc2-c2ccncc2)s1 [Example 378]
efficacy (Alternaria solani): 100%
% Inhibition of fungal growth at 50 μM (Fusarium graminearum): 54%
% Inhibition of DON/AcDON at 50 μM (Fusarium graminearum): 99%
log p (pH 2.7): 1.64^[b]
logP value of the minor isomer (pH 2.7): (1.46)

O=C1OCCC1n1cc(-c2ccncc2)c(-c2ccc(Br)s2)n1 (centres unmarked) [Example 385]
efficacy (Alternaria solani): 94%
% Inhibition of fungal growth at 50 μM (Fusarium graminearum): 17%
% Inhibition of DON/AcDON at 50 μM (Fusarium graminearum): 82%
log p (pH 2.7): 1.52^[b]

FCCn1cc(-c2ccncc2)c(-c2cc3ccsc3s2)n1 [Example 367]
efficacy (Alternaria solani): 78%
% Inhibition of fungal growth at 50 μM (Fusarium graminearum): 78%
% Inhibition of DON/AcDON at 50 μM (Fusarium graminearum): 99%
log p (pH 2.7): 1.45^[b]

CC(C)(C)Cn1cc(-c2ccncc2)c(-c2cc3ccsc3s2)n1 [Example 334]
efficacy (Alternaria solani): 78%
log p (pH 2.7): 2.35^[b]

FC(F)(F)Cn1cc(-c2ccncc2)c(-c2cc3ccsc3s2)n1 [Example 330]
efficacy (Alternaria solani): 94%
% Inhibition of fungal growth at 50 μM (Fusarium graminearum): 31%
% Inhibition of DON/AcDON at 50 μM (Fusarium graminearum): 94%
log p (pH 2.7): 1.91^[b]

FC(F)(F)Cn1cc(-c2ccncc2)c(-c2ccc(Br)s2)n1 [Example 391]
efficacy (Alternaria solani): 100%
% Inhibition of fungal growth at 50 μM (Fusarium graminearum): 97%
% Inhibition of DON/AcDON at 50 μM (Fusarium graminearum): 99%
log p (pH 2.7): 1.98^[b]

CCOCCn1cc(-c2ccncc2)c(-c2cc3ccsc3s2)n1 [Example 337]
efficacy (Alternaria solani): 94%
% Inhibition of fungal growth at 50 μM (Fusarium graminearum): 100%
% Inhibition of DON/AcDON at 50 μM (Fusarium graminearum): 99%
log p (pH 2.7): 1.7^[b]

CCCc1c(-c2ccncc2)c(-c2sccc2C)nn1C [Example 165]
efficacy (Alternaria solani): 70%
log p (pH 2.7): 1.31^[b]
logP value of the minor isomer (pH 2.7): 1.46^[b])
log p (pH 7.8): 2.59^[c];
logP value of the minor isomer (pH 7.8): (2.79^[c];

CC(C)(C)Cn1cc(-c2ccncc2)c(-c2ccc(F)s2)n1 [Example 345]
efficacy (Alternaria solani): 94%
% Inhibition of fungal growth at 50 μM (Fusarium graminearum): 63%
% Inhibition of DON/AcDON at 50 μM (Fusarium graminearum): 97%
log p (pH 2.7): 2.11^[b]

N#CCCn1cc(-c2ccncc2)c(-c2cc3ccsc3s2)n1 [Example 338]
% Inhibition of fungal growth at 50 μM (Fusarium graminearum): 50%
% Inhibition of DON/AcDON at 50 μM (Fusarium graminearum): 99%
log p (pH 2.7): 1.07^[b]

C=CCNc1nccc(-c2cn(C(C)CC)nc2-c2ccc(Cl)s2)n1 (centres unmarked) [Example 196]
% Inhibition of fungal growth at 50 μM (Fusarium graminearum): 83%
% Inhibition of DON/AcDON at 50 μM (Fusarium graminearum): 99%
log p (pH 2.3): 3.39^[a]

Fc1ccc(-c2nn(Cc3ccc(Cl)s3)cc2-c2ccncc2)s1 [Example 341]
% Inhibition of fungal growth at 50 μM (Fusarium graminearum): 55%
% Inhibition of DON/AcDON at 50 μM (Fusarium graminearum): 96%
log p (pH 2.7): 2.34^[b]

N#CCn1cc(-c2ccncc2)c(-c2ccc(Br)s2)n1 [Example 348]
% Inhibition of fungal growth at 50 μM (Fusarium graminearum): 45%
% Inhibition of DON/AcDON at 50 μM (Fusarium graminearum): 99%
log p (pH 2.7): 1.51^[b]

CCC(C)n1cc(-c2ccnc(NC(=O)OC(C)C)c2)c(-c2ccc(Cl)s2)n1 (centres unmarked) [Example 239]
efficacy (Alternaria solani): 80%
log p (pH 2.7): 4.33^[b]

CCC(CC)n1cc(-c2ccncc2)c(-c2cc3ccsc3s2)n1 [Example 333]
efficacy (Alternaria solani): 94%
% Inhibition of fungal growth at 50 μM (Fusarium graminearum): 86%
% Inhibition of DON/AcDON at 50 μM (Fusarium graminearum): 98%
log p (pH 2.7): 2.3^[b]

Fc1ccc(-c2nn(CCCl)cc2-c2ccncc2)s1 [Example 381]
efficacy (Alternaria solani): 94%
% Inhibition of fungal growth at 50 μM (Fusarium graminearum): 91%
% Inhibition of DON/AcDON at 50 μM (Fusarium graminearum): 99%
log p (pH 2.7): 1.45^[b]
logP value of the minor isomer (pH 2.7): (1.34)

ClCCn1cc(-c2ccncc2)c(-c2cc3ccsc3s2)n1 [Example 370]
% Inhibition of fungal growth at 50 μM (Fusarium graminearum): 70%
% Inhibition of DON/AcDON at 50 μM (Fusarium graminearum): 99%
log p (pH 2.7): 1.7^[b]

Fc1cccc(Cn2cc(-c3ccncc3)c(-c3ccc(Br)s3)n2)c1F [Example 353]
efficacy (Alternaria solani): 78%
log p (pH 2.7): 2.44^[b]

CCn1cc(-c2ccncc2)c(-c2cc3ccsc3s2)n1 [Example 329]
efficacy (Alternaria solani): 94%
% Inhibition of fungal growth at 50 μM (Fusarium graminearum): 85%
% Inhibition of DON/AcDON at 50 μM (Fusarium graminearum): 98%
log p (pH 2.7): 1.57^[b]

CCC(C)Nc1nccc(-c2cn(C(C)CC)nc2-c2ccc(Cl)s2)n1 (centres unmarked) [Example 197]
% Inhibition of fungal growth at 50 μM (Fusarium graminearum): 73%
% Inhibition of DON/AcDON at 50 μM (Fusarium graminearum): 90%
log p (pH 2.3): 3.48^[a]

Fc1ccc(-c2nn(CC(F)F)cc2-c2ccncc2)s1 [Example 373]
efficacy (Alternaria solani): 100%
% Inhibition of fungal growth at 50 μM (Fusarium graminearum): 97%
% Inhibition of DON/AcDON at 50 μM (Fusarium graminearum): 99%
log p (pH 2.7): 1.34^[b]

CC(C)n1ncc(-c2ccncc2)c1-c1ccc(F)s1 [Example 109]
% Inhibition of fungal growth at 50 μM (Fusarium graminearum): 49%
% Inhibition of DON/AcDON at 50 μM (Fusarium graminearum): 100%
log p (pH 2.7): 1.51^[b]

C=CC(C)n1cc(-c2ccncc2)c(-c2ccc(Br)s2)n1 (centres unmarked) [Example 389]
efficacy (Alternaria solani): 94%
% Inhibition of fungal growth at 50 μM (Fusarium graminearum): 96%
% Inhibition of DON/AcDON at 50 μM (Fusarium graminearum): 99%
log p (pH 2.7): 2.03^[b]
logP value of the minor isomer (pH 2.7): (1.88)

CC(C)n1cc(-c2ccncc2)c(-c2cc3ccsc3s2)n1 [Example 366]
efficacy (Alternaria solani): 78%
% Inhibition of fungal growth at 50 μM (Fusarium graminearum): 93%
% Inhibition of DON/AcDON at 50 μM (Fusarium graminearum): 98%
log p (pH 2.7): 1.79^[b]

Fc1ccc(-c2n[nH]cc2-c2ccncc2)s1 [Example 105]
% Inhibition of fungal growth at 50 μM (Fusarium graminearum): 0%
% Inhibition of DON/AcDON at 50 μM (Fusarium graminearum): 88%
log p (pH 2.7): 0.57^[b]

CC(C)n1cc(-c2ccnc(NC(=O)c3ccccc3)c2)c(-c2ccc(Cl)s2)n1 [Example 260]
efficacy (Alternaria solani): 80%
log p (pH 2.7): 4.03^[b]

CCOCCn1cc(-c2ccncc2)c(-c2ccc(Br)s2)n1 [Example 349]
% Inhibition of fungal growth at 50 μM (Fusarium graminearum): 95%
% Inhibition of DON/AcDON at 50 μM (Fusarium graminearum): 99%
log p (pH 2.7): 1.75^[b]

CC1(Cn2cc(-c3ccncc3)c(-c3ccc(Cl)s3)n2)CC1(Cl)Cl (centres unmarked) [Example 324]
% Inhibition of fungal growth at 50 μM (Fusarium graminearum): 0%
% Inhibition of DON/AcDON at 50 μM (Fusarium graminearum): 93%
log p (pH 2.7): 2.71^[b]

CC(C)n1cc(-c2ccnc(N)c2)c(-c2ccc(Cl)s2)n1 [Example 306]
% Inhibition of fungal growth at 50 μM (Fusarium graminearum): 87%
% Inhibition of DON/AcDON at 50 μM (Fusarium graminearum): 100%
log p (pH 2.7): 1.78^[b]

ClCCn1cc(-c2ccncc2)c(-c2ccc(Br)s2)n1 [Example 393]
% Inhibition of fungal growth at 50 μM (Fusarium graminearum): 96%
% Inhibition of DON/AcDON at 50 μM (Fusarium graminearum): 99%
log p (pH 2.7): 1.78^[b]
logP value of the minor isomer (pH 2.7): (1.61)

CC(C)Cn1ncc(-c2ccncc2)c1-c1ccc(Br)s1 [Example 406]
% Inhibition of fungal growth at 50 μM (Fusarium graminearum): 0%
% Inhibition of DON/AcDON at 50 μM (Fusarium graminearum): 95%
log p (pH 2.7): 1.91^[b]

CCn1cc(-c2ccnc(Cl)c2)c(-c2ccc(Cl)s2)n1 [Example 316]
% Inhibition of fungal growth at 50 μM (Fusarium graminearum): 37%
% Inhibition of DON/AcDON at 50 μM (Fusarium graminearum): 87%
log p (pH 2.7): 3.89^[b]
